Reference: patent publication US6664231B1, “Anti-fungal peptides” (priority 1993, dated 2003)
Like-named read-outs stand apart in the source and are kept apart here. Square brackets hold non-standard residues; d marks the D form. Ends that are not written are not given here. Peptide text beside a SMILES is read from it. 12Ado = NCCCCCCCCCCCC(=O)O; Orn = NCCC[C@H](N)C(=O)O; Dab = NCC[C@H](N)C(=O)O; Aoc = NCCCCCCCC(=O)O

Tests used:
mouse RAW 264.7 cells = system: mouse RAW 264.7 cells
Protocol: (§1) An in vitro LPS neutralization screening assay for evaluation of Domain III derived peptides was developed (as described in co-owned and co-pending U.S. patent application Ser. No. 08/306,473) which provides both a measure of efficacy of each peptide (EC50) and of the toxicity/growth inhibition of each peptide (IC50).
(§2) The cells were counted and their concentration adjusted to 2×10^5 cells/mL and 100 μL aliquots were added to each well of a 96-well microtitre plate. […] This incubation was performed in the absence or presence of peptides in varying concentrations between 25 ng/mL and 50 μg/mL. […] Cell proliferation was quantitatively measured by the addition of 1 μCi/well [^3H]-thymidine 5 hours after the time of initiation of the assay. After the 15-hour incubation, labeled cells were harvested onto glass fiber filters with a cell harvester (Inotech Biosystems, INB-384, Sample Processing and Filter Counting System, Lansing, Mich.).

[1] = system: mouse RAW 264.7 cells incubated with E. coli O113 LPS; settings: RAW 264.7 cells with E. coli O113 LPS; concentration reversing LPS growth inhibition by 50%
Protocol: as §1, §2

[2] = RAW 264.7 cell growth inhibited by 50%

Row | Compound | IC50 (toxicity/growth inhibition of peptide) (mouse RAW 264.7 cells) [µg/mL] | In Vitro LPS Neutralization EC50 [1] | IC50 (toxicity/growth inhibition of peptide) (mouse RAW 264.7 cells; [2])
1 | CC[C@H](C)[C@H](NC(=O)[C@H](CC(C)C)NC(=O)[C@H](Cc1c[nH]c2ccccc12)NC(=O)[C@H](N)CS)C(=O)N[C@@H](CCC(N)=O)C(=O)N[C@@H](CC(C)C)C(=O)N[C@@H](Cc1ccccc1)C(=O)N[C@@H](Cc1c[nH]cn1)C(=O)N[C@@H](CCCCN)C(=O)N[C@@H](CCCCN)C(N)=O [XMP.359P] (H-[dC]WLIQLFHKK-NH2; N-terminus assumed) | >25 | 7.31 ± 1.26 µg/mL | –
2 | CC[C@H](C)[C@H](NC(=O)[C@H](CC(C)C)NC(=O)[C@@H](Cc1c[nH]c2ccccc12)NC(=O)[C@H](N)CCCCN)C(=O)N[C@@H](CCC(N)=O)C(=O)N[C@@H](CC(C)C)C(=O)N[C@@H](Cc1ccccc1)C(=O)N[C@@H](Cc1c[nH]cn1)C(=O)N[C@H](CCCCN)C(=O)N[C@H](CCCCN)C(N)=O [XMP.363P] | – | >50 µg/mL | NA (NA for IC50 means no evidence of decreased RAW cell growth at up to 50 μg/ml)
3 | CC[C@H](C)[C@H](NC(=O)[C@H](CC(C)C)NC(=O)[C@@H](Cc1c[nH]c2ccccc12)NC(=O)[C@@H](CCCCN)NC(C)=O)C(=O)N[C@@H](CCC(N)=O)C(=O)N[C@@H](CC(C)C)C(=O)N[C@@H](Cc1ccccc1)C(=O)N[C@@H](Cc1c[nH]cn1)C(=O)N[C@H](CCCCN)C(=O)N[C@H](CCCCN)C(N)=O [XMP.364P] | – | >25 µg/mL | NA (NA for IC50 means no evidence of decreased RAW cell growth at up to 50 μg/ml)
4 | CC[C@@H](C)[C@@H](NC(=O)[C@@H](CCC(N)=O)NC(=O)[C@@H](CC(C)C)NC(=O)[C@@H](Cc1ccccc1)NC(=O)[C@@H](Cc1c[nH]cn1)NC(=O)[C@@H](CCCCN)NC(=O)[C@@H](CCCCN)NC(C)=O)C(=O)N[C@H](CC(C)C)C(=O)N[C@H](Cc1c[nH]c2ccccc12)C(=O)N[C@H](CCCCN)C(N)=O [XMP.368P] | >25 | 1.95 ± 0.11 µg/mL | –
5 | CC[C@H](C)[C@H](NC(=O)[C@H](CC(C)C)NC(=O)[C@H](Cc1c[nH]c2ccccc12)NC(=O)[C@@H](N)CCCCN)C(=O)N[C@@H](CCCN)C(=O)N[C@@H](CC(C)C)C(=O)N[C@@H](Cc1ccccc1)C(=O)N[C@@H](Cc1c[nH]cn1)C(=O)N[C@@H](CCCCN)C(=O)N[C@@H](CCCCN)C(N)=O [XMP.369P] (H-KWLI[Orn]LFHKK-NH2) | – | 12.09 ± 0.43 µg/mL | NA (NA for IC50 means no evidence of decreased RAW cell growth at up to 50 μg/ml)
6 | CC[C@H](C)[C@H](NC(=O)[C@H](CC(C)C)NC(=O)[C@H](Cc1c[nH]c2ccccc12)NC(=O)[C@H](CCCCN)NC(C)=O)C(=O)N[C@@H](CCCN)C(=O)N[C@@H](CC(C)C)C(=O)N[C@@H](Cc1ccccc1)C(=O)N[C@@H](Cc1c[nH]cn1)C(=O)N[C@@H](CCCCN)C(=O)N[C@@H](CCCCN)C(N)=O [XMP.370P] (Ac-KWLI[Orn]LFHKK-NH2) | >25 | NA (NA for EC50 means no evidence neutralization of LPS at up to 50 μg/ml) | –
7 | CC[C@H](C)[C@H](NC(=O)[C@H](CC(C)C)NC(=O)[C@H](Cc1c[nH]c2ccccc12)NC(=O)[C@@H](N)CCCCN)C(=O)N[C@@H](CCN)C(=O)N[C@@H](CC(C)C)C(=O)N[C@@H](Cc1ccccc1)C(=O)N[C@@H](Cc1c[nH]cn1)C(=O)N[C@@H](CCCCN)C(=O)N[C@@H](CCCCN)C(N)=O [XMP.371P] (H-KWLI[Dab]LFHKK-NH2) | >25 | NA (NA for EC50 means no evidence neutralization of LPS at up to 50 μg/ml) | –
8 | CC[C@H](C)[C@H](NC(=O)[C@H](CC(C)C)NC(=O)[C@H](Cc1c[nH]c2ccccc12)NC(=O)[C@H](CCCCN)NC(C)=O)C(=O)N[C@@H](CCN)C(=O)N[C@@H](CC(C)C)C(=O)N[C@@H](Cc1ccccc1)C(=O)N[C@@H](Cc1c[nH]cn1)C(=O)N[C@@H](CCCCN)C(=O)N[C@@H](CCCCN)C(N)=O [XMP.372P] (Ac-KWLI[Dab]LFHKK-NH2) | >25 | >25 µg/mL | –
9 | CC[C@@H](C)[C@@H](NC(=O)[C@@H](CCC(N)=O)NC(=O)[C@@H](CC(C)C)NC(=O)[C@H](N)CCCCN)C(=O)N[C@H](CC(C)C)C(=O)N[C@H](Cc1c[nH]c2ccccc12)C(=O)N[C@H](CCCCN)C(=O)N[C@H](CCCCN)C(N)=O [XMP.374P] | – | 13.97 ± 2.02 µg/mL | NA (NA for IC50 means no evidence of decreased RAW cell growth at up to 50 μg/ml)
10 | CC[C@@H](C)[C@@H](NC(=O)[C@@H](C)NC(=O)[C@@H](Cc1c[nH]c2ccccc12)NC(=O)[C@@H](CCCCN)NC(=O)[C@H](N)CCCCN)C(=O)N[C@H](CCC(N)=O)C(=O)N[C@H](CC(C)C)C(=O)N[C@H](CCCCN)C(=O)N[C@H](CCCCN)C(N)=O [XMP.375P] (H-[dK][dK][dW][dA][dI][dQ][dL][dK][dK]-NH2) | – | >50 µg/mL | NA (NA for IC50 means no evidence of decreased RAW cell growth at up to 50 μg/ml)
11 | CC[C@@H](C)[C@@H](NC(=O)[C@@H](CCC(N)=O)NC(=O)[C@@H](CC(C)C)NC(=O)[C@@H](CCCCN)NC(=O)[C@H](N)CCCCN)C(=O)N[C@H](C)C(=O)N[C@H](Cc1c[nH]c2ccccc12)C(=O)N[C@H](CCCCN)C(=O)N[C@H](CCCCN)C(N)=O [XMP.376P] (H-[dK][dK][dL][dQ][dI][dA][dW][dK][dK]-NH2) | – | >50 µg/mL | NA (NA for IC50 means no evidence of decreased RAW cell growth at up to 50 μg/ml)
12 | CC[C@H](C)[C@@H]1NC(=O)[C@H](C)NC(=O)[C@H](Cc2c[nH]c3ccccc23)NC(=O)[C@H](CCCCN)NC(=O)[C@H](CCCCN)NC(=O)[C@H](CCCCN)NC(=O)[C@H](CC(C)C)NC(=O)[C@H](CCC(N)=O)NC1=O [XMP.408P] (cyclo(LKKKWAIQ)) | – | NA (NA for EC50 means no evidence neutralization of LPS at up to 50 μg/ml) | NA (NA for IC50 means no evidence of decreased RAW cell growth at up to 50 μg/ml)
13 | CCCCCCCC(=O)N[C@H](CCCCN)C(=O)N[C@H](Cc1c[nH]c2ccccc12)C(=O)N[C@H](CC(C)C)C(=O)N[C@@H](C(=O)N[C@H](CCC(N)=O)C(=O)N[C@H](CC(C)C)C(=O)N[C@H](Cc1ccccc1)C(=O)N[C@H](Cc1c[nH]cn1)C(=O)N[C@H](CCCCN)C(=O)N[C@H](CCCCN)C(N)=O)[C@H](C)CC [XMP.414] | – | 1.91 ± 0.04 µg/mL | 10.96 ± 0.52 µg/mL
14 | CCCCCCCCCCCC(=O)N[C@H](CCCCN)C(=O)N[C@H](Cc1c[nH]c2ccccc12)C(=O)N[C@H](CC(C)C)C(=O)N[C@@H](C(=O)N[C@H](CCC(N)=O)C(=O)N[C@H](CC(C)C)C(=O)N[C@H](Cc1ccccc1)C(=O)N[C@H](Cc1c[nH]cn1)C(=O)N[C@H](CCCCN)C(=O)N[C@H](CCCCN)C(N)=O)[C@H](C)CC [XMP.415] | 6.80 ± 0.14 | 1.61 ± 0.03 µg/mL | –
15 | CC[C@@H](C)[C@@H](NC(=O)[C@@H](CC(C)C)NC(=O)[C@@H](Cc1c[nH]c2ccccc12)NC(=O)[C@@H](CCCCN)NC(=O)CCCCCCCN)C(=O)N[C@H](CCC(N)=O)C(=O)N[C@H](CC(C)C)C(=O)N[C@H](Cc1ccccc1)C(=O)N[C@H](Cc1c[nH]cn1)C(=O)N[C@H](CCCCN)C(=O)N[C@H](CCCCN)C(N)=O [XMP.416] (H-[Aoc][dK][dW][dL][dI][dQ][dL][dF][dH][dK][dK]-NH2) | – | 4.67 ± 0.27 µg/mL | 24.41 ± 0.78 µg/mL
16 | CC[C@@H](C)[C@@H](NC(=O)[C@@H](CC(C)C)NC(=O)[C@@H](Cc1c[nH]c2ccccc12)NC(=O)[C@@H](CCCCN)NC(=O)CCCCCCCCCCCN)C(=O)N[C@H](CCC(N)=O)C(=O)N[C@H](CC(C)C)C(=O)N[C@H](Cc1ccccc1)C(=O)N[C@H](Cc1c[nH]cn1)C(=O)N[C@H](CCCCN)C(=O)N[C@H](CCCCN)C(N)=O [XMP.417] (H-[12Ado][dK][dW][dL][dI][dQ][dL][dF][dH][dK][dK]-NH2; C-terminus assumed) | 11.26 ± 1.30 | 3.88 ± 0.20 µg/mL | –
17 | Ac-PWLIQLFHKK-NH2 [XMP.356P] | >25 | 2.72 ± 0.02 µg/mL | –
18 | GWLIQLFHKK-NH2 [XMP.388P] | – | 8.08 ± 1.52 µg/mL | NA (NA for IC50 means no evidence of decreased RAW cell growth at up to 50 μg/ml)
19 | H-HHWLIQLHH-NH2 [XMP 337P] | – | >50 µg/mL | NA (NA for IC50 means no evidence of decreased RAW cell growth at up to 50 μg/ml)
20 | H-KKLLLLLKK-NH2 [XMP.385P] | >25 | 2.56 ± 0.23 µg/mL | –
21 | H-KKLLLQLKK-NH2 [XMP.383P] | – | NA (NA for EC50 means no evidence neutralization of LPS at up to 50 μg/ml) | NA (NA for IC50 means no evidence of decreased RAW cell growth at up to 50 μg/ml)
22 | H-KKLLQLLKK-NH2 [XMP.382P] | – | NA (NA for EC50 means no evidence neutralization of LPS at up to 50 μg/ml) | NA (NA for IC50 means no evidence of decreased RAW cell growth at up to 50 μg/ml)
23 | H-KKLQLLLKK-NH2 [XMP.381P] | – | NA (NA for EC50 means no evidence neutralization of LPS at up to 50 μg/ml) | NA (NA for IC50 means no evidence of decreased RAW cell growth at up to 50 μg/ml)
